From ChEMBL document CHEMBL4513161, “CO-ADD screening of MMV (CH) - Pandemic Response Box” (2021) come the findings set out here.

The subject of assay [1] is HEK293. Description: cells. In kind it is functional, Homo sapiens, ATCC CRL1573. The note with it: Homo sapiens, ATCC CRL1573, HEK293; ASSAY_TEST Inhibition of Cell Viability; detection method Resazurin; Fluorescence (ex560/em590); MEDIA DMEM with 10% FBS; plate type 384well; TC; CORNING #3712; time 18 hr; read-out: CC50. (The colour change of resazurin is a common sign of viable cells or microbes.)

The subject of assay [2] is Pseudomonas aeruginosa. Description: Antibacterial activity against Pseudomonas aeruginosa PAO397 [PAO1 d(mexAB-oprM) d(mexCD-oprJ) d(mexEF-oprN) d(mexJKL) d(mexXY) d(opmH)] (CO-ADD:GN_211); MIC in CAMBH media using NBS plates, by OD(600). The note with it: ASSAY_TEST Inhibition of Bacterial Growth, detection method Absorption (OD600), MEDIA CAMHB, plate type 384well, CORNING #3640, time 18 hr. The assay is classed as functional.

Assay [3] concerns Staphylococcus aureus. The assay can be described thus: microbe, parasite or virus in culture. The note with it: ATCC 43300, 18 h, ASSAY_TEST Inhibition of Bacterial Growth, detection method Absorption (OD600), MEDIA CAMHB, plate type 384well, NBS, CORNING #3640.
Description: Antibacterial activity against Staphylococcus aureus MRSA ATCC 43300 (CO-ADD:GP_020); MIC in CAMBH media, using NBS plates, by OD(600)
In assay [4] the test system is Pseudomonas aeruginosa. The assay can be described thus: microbe, parasite or virus in culture. The note with it: ATCC 27853, 18 h, ASSAY_TEST Inhibition of Bacterial Growth, detection method Absorption (OD600), MEDIA CAMHB, plate type 384well, NBS, CORNING #3640.
Description: Antibacterial activity against Pseudomonas aeruginosa ATCC 27853 (CO-ADD:GN_042); MIC in CAMBH media using NBS plates, by OD(600)
Assay [5] deals with Acinetobacter baumannii. Description: microbe, parasite or virus in culture. The note with it: ATCC 19606, 18 h, ASSAY_TEST Inhibition of Bacterial Growth, detection method Absorption (OD600), MEDIA CAMHB, plate type 384well, NBS, CORNING #3640.
Description: Antibacterial activity against Acinetobacter baumannii ATCC 19606 (CO-ADD:GN_034); MIC in CAMBH media using NBS plates, by OD600
Assay [6] deals with Klebsiella pneumoniae. Description: microbe, parasite or virus in culture. The note with it: ATCC 700603, 18 h, ASSAY_TEST Inhibition of Bacterial Growth, detection method Absorption (OD600), MEDIA CAMHB, plate type 384well, NBS, CORNING #3640.
Description: Antibacterial activity against Klebsiella pneumoniae MDR ATCC 70063 (CO-ADD:GN_003); MIC in CAMBH media using NBS plates, by OD(600)
Assay [7] relates to Cryptococcus neoformans.
Description: Antifungal activity against Cryptococcus neoformans H99 ATCC 208821 (CO-ADD:FG_002); MIC in YNB media using NBS plates, by Resazurin OD(600-570)
Assay [8] deals with Candida albicans. The assay can be described thus: microbe, parasite or virus in culture. The note with it: ATCC 90028, ASSAY_TEST Inhibition of Fungal Growth, detection method Absorption (OD530), plate type 384well, NBS, CORNING #3640.
Description: Antifungal activity against Candida albicans ATCC 90028 (CO-ADD:FG_001); MIC in YNB media using NBS plates, by OD630
Assay [9] has as its system Escherichia coli. Description: microbe, parasite or virus in culture. The note with it: ATCC 25922, 18 h, ASSAY_TEST Inhibition of Bacterial Growth, detection method Absorption (OD600), MEDIA CAMHB, plate type 384well, NBS, CORNING #3640.
Description: Antibacterial activity against Escherichia coli ATCC 25922 (CO-ADD:GN_001); MIC in CAMBH media using NBS plates, by OD(600)

Structures are written as SMILES. Values after ≈ are worked out from the molar mass of the structure shown.

With `N[C@H]1CCC[C@H]1C(=O)O`, the CC50 in assay [1] was greater than 20 µM. For the same compound, the MIC in [2], in [3], in assay [4], in assay [5], in [6] and in assay [7] was greater than 20 µM in each case. For the same compound, the MIC in assay [8] and in assay [9] was greater than 20 µM throughout.
For the compound `COc1ccc(C(C)(C)C)cc1NC(=O)C(=O)c1ccc(OCCN2CCOCC2)c2ccccc12`, the CC50 in assay [1] is greater than 20 µM. The MIC in assay [2], in assay [3], in assay [4], in assay [5], in assay [6] and in [7] was greater than 20 µM in each case. The MIC in [8] and in assay [9] was greater than 20 µM each time.
As for `COc1cc(Cc2cnc(N)nc2N)c2c(c1OC)OC(C1CC1)C=C2` (stereo not given), the CC50 in assay [1] is greater than 20 µM. The MIC in assay [2] was 5 µM (≈ 1.77 µg/mL); in [3], 2.5 µM (≈ 0.886 µg/mL); in [4] it was greater than 20 µM; in [5], greater than 20 µM; in assay [6], greater than 20 µM; in assay [7], greater than 20 µM. Also, the MIC in assay [8] and in assay [9] was greater than 20 µM each time.
Turning to `CCCCc1ccc(S(=O)(=O)Nc2cc(C)on2)cc1`, the CC50 in [1] was greater than 20 µM. In addition, the MIC in assay [2], in assay [3], in assay [4], in assay [5], in assay [6] and in [7] was greater than 20 µM in each case. For the same compound, the MIC in [8] and in assay [9] was greater than 20 µM in each case.
As to `O=[N+]([O-])/C(Br)=C/c1ccc(Br)o1`, the half-maximal cytotoxic concentration (CC50) in assay [1] was greater than 20 µM. Also, the MIC in [2] is greater than 20 µM; in assay [3], greater than 20 µM; in [4], greater than 20 µM; in assay [5], greater than 20 µM; in [6], greater than 20 µM; in [7] it was 20 µM (≈ 5.94 µg/mL). Besides, the MIC in assay [8] was 20 µM (≈ 5.94 µg/mL); in assay [9], greater than 20 µM.
Turning to `C[C@H]1CC[C@]2(NC1)O[C@H]1C[C@H]3[C@@H]4CC[C@H]5C[C@@H](O)CC[C@]5(C)[C@H]4CC[C@]3(C)[C@H]1[C@@H]2C`, the CC50 in assay [1] is greater than 20 µM. The MIC in assay [2], in assay [3], in assay [4], in assay [5], in [6] and in assay [7] was greater than 20 µM throughout. The MIC is 20 µM (≈ 8.31 µg/mL) in [8] and greater than 20 µM in assay [9].
Turning to `O=C(NNC(=S)Nc1ccc(Cl)cc1)c1ccncc1`, the CC50 in assay [1] was greater than 20 µM. In addition, the MIC in assay [2], in assay [3], in assay [4], in assay [5], in assay [6] and in assay [7] was greater than 20 µM throughout. The MIC in assay [8] and in [9] was greater than 20 µM throughout.
With `O=C(N[C@H](Cc1cccc2ccccc12)C(=O)NCCc1c[nH]cn1)C1Cc2ccccc2C1`, the 50% cytotoxic concentration (CC50) in [1] was greater than 20 µM. Further, the MIC in assay [2], in [3], in [4], in [5], in assay [6] and in assay [7] was greater than 20 µM throughout. For the same compound, the MIC in [8] and in [9] was greater than 20 µM throughout.
Regarding `FC(F)(F)c1cc(C(F)(F)F)c2ccc3nc(-c4nnco4)cn3c2n1`, the half-maximal cytotoxic concentration (CC50) in assay [1] is greater than 20 µM. In addition, the MIC in [2], in assay [3], in assay [4], in assay [5], in [6] and in [7] was greater than 20 µM in each case. In addition, the MIC in assay [8] and in assay [9] was greater than 20 µM throughout.
As to `CN(C)CCCOc1ccc(-c2ccc3ncc4c(c3c2)n(C2CCOCC2)c(=O)n4C)cn1`, the CC50 in assay [1] was greater than 20 µM. For the same compound, the MIC in assay [2], in assay [3], in assay [4], in [5], in [6] and in [7] was greater than 20 µM in each case. Besides, the MIC in [8] and in assay [9] was greater than 20 µM throughout.
In the case of `C[Si]1(C)CCN(Cc2cc(-c3ccc(Cl)cc3)n(-c3ccc(Cl)cc3)n2)CC1`, the CC50 in [1] was greater than 20 µM. The MIC in assay [2], in [3], in assay [4], in assay [5], in [6] and in [7] was greater than 20 µM each time. Also, the MIC in [8] and in assay [9] was greater than 20 µM throughout.
Turning to `O=C(CCc1ccc2c(c1)OCO2)NCc1ccc(-c2ccccc2F)cc1`, the cytotoxic concentration (CC50) in [1] is greater than 20 µM. The MIC in assay [2], in [3], in [4], in [5], in [6] and in assay [7] was greater than 20 µM in each case. Also, the MIC in assay [8] and in assay [9] was greater than 20 µM throughout.
For `CCC(C)(C)c1ccc(CC(C)CN2C[C@@H](C)O[C@@H](C)C2)cc1` (stereo not given in full), the CC50 in assay [1] is greater than 20 µM. The MIC in assay [2], in [3], in [4], in [5], in assay [6] and in [7] was greater than 20 µM in each case. In addition, the values for the MIC in [8] and in [9] were 2.5 µM (≈ 0.794 µg/mL) and greater than 20 µM, respectively.
For `CC(C)(C)c1ccc(C(=O)NC(=O)N2CCCc3ccccc32)cc1`, the CC50 in assay [1] was greater than 20 µM. The MIC in assay [2], in assay [3], in assay [4], in assay [5], in assay [6] and in assay [7] was greater than 20 µM throughout. Also, the MIC in assay [8] and in assay [9] was greater than 20 µM each time.
In the case of `CC1(C)C[C@H]1C(=O)N/C(=C\CCCCSC[C@@H](N)C(=O)O)C(=O)O`, the half-maximal cytotoxic concentration (CC50) in [1] was greater than 20 µM. In addition, the MIC in assay [2], in assay [3], in assay [4], in assay [5], in assay [6] and in assay [7] was greater than 20 µM each time. The MIC in assay [8] and in assay [9] was greater than 20 µM each time.
Regarding `OB1OCc2c1ccc(Cl)c2F`, the CC50 in [1] is greater than 20 µM. The MIC in [2] is greater than 20 µM; in assay [3] it was greater than 20 µM; in assay [4], greater than 20 µM; in assay [5], greater than 20 µM; in [6] it was greater than 20 µM; in assay [7], 20 µM (≈ 3.73 µg/mL). In addition, the MIC in assay [8] was 10 µM (≈ 1.86 µg/mL); in [9], greater than 20 µM.
For the compound `Clc1cc(Cl)c2c(c1)CCc1ccccc1C2n1ccnc1` (stereo not given), in assay [1], the 50% cytotoxic concentration (CC50) was greater than 20 µM. Further, the MIC in [2] was 20 µM (≈ 6.58 µg/mL); in assay [3], 20 µM (≈ 6.58 µg/mL); in assay [4], greater than 20 µM; in [5] it was greater than 20 µM; in assay [6] it was greater than 20 µM; in assay [7] it was 20 µM (≈ 6.58 µg/mL). The MIC in assay [8] was 5 µM (≈ 1.65 µg/mL); in assay [9], greater than 20 µM.
As to `O=C1c2cccc3cccc(c23)C(=O)N1CC1CO1` (stereo not given), the 50% cytotoxic concentration (CC50) in [1] was 4.49 µM. Besides, the MIC in assay [2] is greater than 20 µM; in [3], 20 µM (≈ 5.07 µg/mL); in assay [4], greater than 20 µM; in assay [5], greater than 20 µM; in [6], greater than 20 µM; in assay [7], greater than 20 µM. Moreover, the MIC in [8] and in assay [9] was greater than 20 µM throughout.
As to `O=C(/C(=C/c1ccc(Cl)cc1Cl)n1ccnc1)c1ccc(Cl)cc1`, the CC50 in assay [1] was determined as 5.19 µM. Also, the MIC in assay [2] was greater than 20 µM; in assay [3], 20 µM (≈ 7.55 µg/mL); in [4], greater than 20 µM; in [5], greater than 20 µM; in assay [6] it was greater than 20 µM; in assay [7] it was 20 µM (≈ 7.55 µg/mL). For the same compound, the figures for the MIC in assay [8] and in assay [9] were 10 µM (≈ 3.78 µg/mL) and greater than 20 µM, respectively.
In the case of `NC(=O)C(c1ccccc1)(c1ccccc1)[C@H]1CCCN(CCc2ccc3c(c2)CCO3)C1`, the CC50 in assay [1] was greater than 20 µM. Also, the MIC in assay [2] is 20 µM (≈ 8.81 µg/mL); in assay [3], greater than 20 µM; in assay [4] it was greater than 20 µM; in [5] it was greater than 20 µM; in [6] it was greater than 20 µM; in assay [7] it was greater than 20 µM. Also, the MIC in [8] and in [9] was greater than 20 µM in each case.

As usually defined, the CC50 is the concentration giving 50% cytotoxicity.
